{
  "source": "patent US20230082430A1",
  "about": "(C4 Therapeutics, Inc., priority 2019, published 2023)",
  "note": "Counter-ions that a name gives are not always drawn.",
  "data": [
    {"system": "NCIH929.1 cells", "assay": "Cell viability assay for Table 2 (CellTiter-Glo 2.0, ATP quantification, 96 hr)", "format": "cell-based", "details": "96 h", "text": "(§1) Cell Viability Assay for Table 2\n(§2) CellTiter-Glo® 2.0 Assay was purchased from Promega (Madison, Wis., USA). NCIH929.1 cell line was purchased from ATCC (Manassas, Va., USA). Cell culture flasks and 384-well microplates were acquired from VWR (Radnor, Pa., USA).", "units": {"IC50": "nM"}, "values": [
      {"compound": "O=C1CCC(N2C(=O)c3cccc4cccc2c34)C(=O)N1", "note": "(stereo not shown) [Compound 139, 3-(2-oxobenzo[cd]indol-1(2H)-yl)piperidine-2,6-dione]", "IC50": "< 100"}
    ]},
    {"system": "NCIH929.1 cells", "assay": "Cell viability assay for Table 2 (CellTiter-Glo 2.0, ATP quantification, 96 hr)", "format": "cell-based", "details": "96 h, NCIH929.1 cell viability, 96 hr, top concentration 1 μM, 14 points half log titration; read-out: IC50", "text": "as §1, §2", "units": {"IC50": "nM"}, "values": [
      {"compound": "CC1(n2cc(Cc3ccc4c5c(cccc35)C(=O)N4C3CCC(=O)NC3=O)cn2)CCN(c2ncccc2F)CC1", "note": "(stereo not shown) [Compound 126, 3-[6-[[1-[1-(3-fluoro-2-pyridyl)-4-methyl-4-piperidyl]pyrazol-4-yl]methyl]-2-oxo-benzo[cd]indol-1-yl]piperidine-2,6-dione]", "IC50": "< 1"},
      {"compound": "CC1(c2cn(Cc3ccc4c5c(cccc35)C(=O)N4C3CCC(=O)NC3=O)nn2)CCN(C(=O)C2(C(F)(F)F)CC2)CC1", "note": "(stereo not shown) [Compound 127, 3-[6-[[4-[4-methyl-1-[1-(trifluoromethyl)cyclopropanecarbonyl]-4-piperidyl]triazol-1-yl]methyl]-2-oxo-benzo[cd]indol-1-yl]piperidine-2,6-dione]", "IC50": "< 1"},
      {"compound": "N#Cc1ccc(N2CCN(Cc3cnn(Cc4ccc5c6c(cccc46)C(=O)N5C4CCC(=O)NC4=O)c3)CC2)c(F)c1", "note": "(stereo not shown) [Compound 128, 4-[4-[[1-[[1-(2,6-dioxo-3-piperidyl)-2-oxo-benzo[cd]indol-6-yl]methyl]pyrazol-4-yl]methyl]piperazin-1-yl]-3-fluoro-benzonitrile]", "IC50": "< 1"},
      {"compound": "N#Cc1ccc(N2CCN(Cc3ccc(Cc4ccc5c6c(cccc46)C(=O)N5C4CCC(=O)NC4=O)cc3)C3(CC3)C2)c(F)c1", "note": "(stereo not shown) [Compound 131, 4-[4-[[4-[[1-(2,6-dioxo-3-piperidyl)-2-oxo-benzo[cd]indol-6-yl]methyl]phenyl]methyl]-4,7-diazaspiro[2.5]octan-7-yl]-3-fluoro-benzonitrile]", "IC50": "< 1"},
      {"compound": "CN(C(=O)N1CCC(n2cc(Cc3ccc4c5c(cccc35)C(=O)N4C3CCC(=O)NC3=O)cn2)CC1)C(C)(C)C", "note": "(stereo not shown) [Compound 132, N-tert-butyl-4-[4-[[1-(2,6-dioxo-3-piperidyl)-2-oxo-benzo[cd]indol-6-yl]methyl]pyrazol-1-yl]-N-methyl-piperidine-1-carboxamide]", "IC50": "< 1"},
      {"compound": "CC1(C(=O)N2CCC(C)(n3cc(Cc4ccc5c6c(cccc46)C(=O)N5C4CCC(=O)NC4=O)c(Cl)n3)CC2)CCC1", "note": "(stereo not shown) [Compound 133]", "IC50": "< 1"},
      {"compound": "O=C1CCC(N2C(=O)c3cccc4c(Cc5ccc(C(=O)N6CCN(c7ccccc7F)CC6)cc5)ccc2c34)C(=O)N1", "note": "(stereo not shown) [Compound 134, 3-[6-[[4-[4-(2-fluorophenyl)piperazine-1-carbonyl]phenyl]methyl]-2-oxo-benzo[cd]indol-1-yl]piperidine-2,6-dione]", "IC50": "< 1"},
      {"compound": "O=C1CCC(N2C(=O)c3cccc4c(Cc5ccc(CN6CCN(c7ccccc7F)CC67CC7)cc5)ccc2c34)C(=O)N1", "note": "(stereo not shown) [Compound 135, 3-[6-[[4-[[7-(2-fluorophenyl)-4,7-diazaspiro[2.5]octan-4-yl]methyl]phenyl]methyl]-2-oxo-benzo[cd]indol-1-yl]piperidine-2,6-dione]", "IC50": "< 1"},
      {"compound": "C#CCNc1ccc2c3c(cccc13)C(=O)N2C1CCC(=O)NC1=O", "note": "(stereo not shown) [Compound 136, 3-[2-oxo-6-(prop-2-ynylamino)benzo[cd]indol-1-yl]piperidine-2,6-dione]", "IC50": "> 999"},
      {"compound": "C#CCOc1ccc2c3c(cccc13)C(=O)N2C1CCC(=O)NC1=O", "note": "(stereo not shown) [Compound 137, 3-(2-oxo-6-prop-2-ynoxy-benzo[cd]indol-1-yl)piperidine-2,6-dione]", "IC50": "< 100"},
      {"compound": "CC(C)(C)OC(=O)N1CCC(n2cc(C(=O)c3ccc4c5c(cccc35)C(=O)N4C3CCC(=O)NC3=O)cn2)CC1", "note": "(stereo not shown) [Compound 143, tert-butyl 4-(4-(1-(2,6-dioxopiperidin-3-yl)-2-oxo-1,2-dihydrobenzo[cd]indole-6-carbonyl)-1H-pyrazol-1-yl)piperidine-1-carboxylate]", "IC50": "< 999"},
      {"compound": "Nc1ccc2c3c(cccc13)C(=O)N2C1CCC(=O)NC1=O", "note": "(stereo not shown) [Compound 144, 3-(6-Amino-2-oxo-2H-benzo[cd]indol-1-yl)-piperidine-2,6-dione hydrochloride]", "IC50": "< 999"},
      {"compound": "N#Cc1ccc2c3c(cccc13)C(=O)N2C1CCC(=O)NC1=O", "note": "(stereo not shown) [Compound 145, 1-(2,6-dioxopiperidin-3-yl)-2-oxo-1,2-dihydrobenzo[cd]indole-6-carbonitrile]", "IC50": "> 999"},
      {"compound": "O=C1CCC(N2C(=O)c3cccc4c(Cc5ccc(CN6C7COCC6C7)cc5)ccc2c34)C(=O)N1", "note": "(stereo not shown) [Compound 146, 3-[6-[[4-(3-oxa-6-azabicyclo[3.1.1]heptan-6-ylmethyl)phenyl]methyl]-2-oxo-benzo[cd]indol-1-yl]piperidine-2,6-dione]", "IC50": "< 1"},
      {"compound": "CC1(C(=O)N2CCC(Cc3ccc(Cc4ccc5c6c(cccc46)C(=O)N5C4CCC(=O)NC4=O)cc3)CC2)CCC1", "note": "(stereo not shown) [Compound 150, 3-(6-(4-((1-(1-methylcyclobutane-1-carbonyl)piperidin-4-yl)methyl)benzyl)-2-oxobenzo[cd]indol-1(2H)-yl)piperidine-2,6-dione]", "IC50": "< 1"},
      {"compound": "N#Cc1ccc(N2CCC(Cc3ccc(Cc4ccc5c6c(cccc46)C(=O)N5C4CCC(=O)NC4=O)cc3)CC2)c(F)c1", "note": "(stereo not shown) [Compound 151, 4-(4-(4-((1-(2,6-dioxopiperidin-3-yl)-2-oxo-1,2-dihydrobenzo[cd]indol-6-yl)methyl)benzyl)piperidin-1-yl)-3-fluorobenzonitrile]", "IC50": "< 1"},
      {"compound": "O=C1CCC(N2C(=O)c3cccc4c(Cc5ccc(CC6CCN(Cc7ccccc7)CC6)cc5)ccc2c34)C(=O)N1", "note": "(stereo not shown) [Compound 152, 3-(6-(4-((1-benzylpiperidin-4-yl)methyl)benzyl)-2-oxobenzo[cd]indol-1(2H)-yl)piperidine-2,6-dione]", "IC50": "< 1"},
      {"compound": "CC1(C(=O)N2CCC(n3cc(C(N)c4ccc5c6c(cccc46)C(=O)N5C4CCC(=O)NC4=O)cn3)CC2)CCC1", "note": "(stereo not shown) [Compound 153, 3-(6-(amino(1-(1-(1-methylcyclobutane-1-carbonyl)piperidin-4-yl)-1H-pyrazol-4-yl)methyl)-2-oxobenzo[cd]indol-1(2H)-yl)piperidine-2,6-dione]", "IC50": "< 1"},
      {"compound": "CC(C)(C)OC(=O)N1CCC(n2cc(C(N)c3ccc4c5c(cccc35)C(=O)N4C3CCC(=O)NC3=O)cn2)CC1", "note": "(stereo not shown) [Compound 154, tert-butyl 4-(4-(amino(1-(2,6-dioxopiperidin-3-yl)-2-oxo-1,2-dihydrobenzo[cd]indol-6-yl)methyl)-1H-pyrazol-1-yl)piperidine-1-carboxylate]", "IC50": "< 1"},
      {"compound": "O=C1CCC(N2C(=O)c3cccc4c(Cc5ccc(CN6CCc7ccccc7C6)cc5)ccc2c34)C(=O)N1", "note": "(stereo not shown) [Compound 155, 3-[6-[[4-(3,4-dihydro-1H-isoquinolin-2-ylmethyl)phenyl]methyl]-2-oxo-benzo[cd]indol-1-yl]piperidine-2,6-dione]", "IC50": "< 1"},
      {"compound": "O=C1CCC(N2C(=O)c3cccc4c(Cc5ccc(CN6C7CCC6COC7)cc5)ccc2c34)C(=O)N1", "note": "(stereo not shown) [Compound 156, 3-[6-[[4-(3-oxa-8-azabicyclo[3.2.1]octan-8-ylmethyl)phenyl]methyl]-2-oxo-benzo[cd]indol-1-yl]piperidine-2,6-dione]", "IC50": "< 1"},
      {"compound": "O=C1CCC(N2C(=O)c3cccc4c(Cc5ccc(CN6CCC(Cc7ccc(F)cc7)CC6)cc5)ccc2c34)C(=O)N1", "note": "(stereo not shown) [Compound 157, 3-[6-[[4-[[4-[(4-fluorophenyl)methyl]-1-piperidyl]methyl]phenyl]methyl]-2-oxo-benzo[cd]indol-1-yl]piperidine-2,6-dione]", "IC50": "< 1"},
      {"compound": "CC(C)(C)C1CCN(Cc2ccc(Cc3ccc4c5c(cccc35)C(=O)N4C3CCC(=O)NC3=O)cc2)CC1", "note": "(stereo not shown) [Compound 158, 3-[6-[[4-[(4-tert-butyl-1-piperidyl)methyl]phenyl]methyl]-2-oxo-benzo[cd]indol-1-yl]piperidine-2,6-dione]", "IC50": "< 1"},
      {"compound": "O=C1CCC(N2C(=O)c3cccc4c(Cc5ccc(CN6CCN(CC(F)(F)F)CC6)cc5)ccc2c34)C(=O)N1", "note": "(stereo not shown) [Compound 161, 3-(2-Oxo-6-{4-[4-(2,2,2-trifluoro-ethyl)-piperazin-1-ylmethyl]-benzyl}-2H-benzo[cd]indol-1-yl)-piperidine-2,6-dione]", "IC50": "< 1"},
      {"compound": "O=C1CCC(N2C(=O)c3cccc4c(Cc5cnn(C6CCCCC6)c5)ccc2c34)C(=O)N1", "note": "(stereo not shown) [Compound 162, 3-[6-[(1-cyclohexylpyrazol-4-yl)methyl]-2-oxo-benzo[cd]indol-1-yl]piperidine-2,6-dione]", "IC50": "< 1"},
      {"compound": "CC1(C(=O)N2CCC(n3cc(C4(c5ccc6c7c(cccc57)C(=O)N6C5CCC(=O)NC5=O)CC4)cn3)CC2)CCC1", "note": "(stereo not shown) [Compound 163, 3-[6-[1-[1-[1-(1-methylcyclobutanecarbonyl)-4-piperidyl]pyrazol-4-yl]cyclopropyl]-2-oxo-benzo[cd]indol-1-yl]piperidine-2,6-dione]", "IC50": "< 1"},
      {"compound": "CC1(CN2CCC(n3cc(C4(c5ccc6c7c(cccc57)C(=O)N6C5CCC(=O)NC5=O)CC4)cn3)CC2)CCC1", "note": "(stereo not shown) [Compound 164, 3-[6-[1-[1-[1-[(1-methylcyclobutyl)methyl]-4-piperidyl]pyrazol-4-yl]cyclopropyl]-2-oxo-benzo[cd]indol-1-yl]piperidine-2,6-dione]", "IC50": "< 100"},
      {"compound": "CN(c1ccc(Cc2ccc3c4c(cccc24)C(=O)N3C2CCC(=O)NC2=O)cc1)C1CCN(c2ccc(C#N)cc2F)CC1", "note": "(stereo not shown) [Compound 165, 4-[4-[4-[[1-(2,6-dioxo-3-piperidyl)-2-oxo-benzo[cd]indol-6-yl]methyl]-N-methyl-anilino]-1-piperidyl]-3-fluoro-benzonitrile]", "IC50": "< 1"},
      {"compound": "N#Cc1ccc(N2CCC(Nc3ccc(Cc4ccc5c6c(cccc46)C(=O)N5C4CCC(=O)NC4=O)cc3)CC2)c(F)c1", "note": "(stereo not shown) [Compound 166, 4-[4-[4-[[1-(2,6-dioxo-3-piperidyl)-2-oxo-benzo[cd]indol-6-yl]methyl]anilino]-1-piperidyl]-3-fluoro-benzonitrile]", "IC50": "< 1"},
      {"compound": "CC1(C(=O)N2CCN(c3ccc(Cc4ccc5c6c(cccc46)C(=O)N5C4CCC(=O)NC4=O)cc3)CC2)CCC1", "note": "(stereo not shown) [Compound 167, 3-[6-[[4-[4-(1-methylcyclobutanecarbonyl)piperazin-1-yl]phenyl]methyl]-2-oxo-benzo[cd]indol-1-yl]piperidine-2,6-dione]", "IC50": "< 1"}
    ]}
  ]
}
